Experimental data published in PubChem BioAssay (NCI).
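Tested at 5 concentrations; 48 h exposure; 96-well plates; endpoints linearly interpolated, else capped at highest concentration. GI50 = concentration required for 50% inhibition of growth. The concentration for full growth arrest is given as TGI.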

Columns and labels:
Test in all cases: NCI tumour cell line growth inhibition, 48 h
U251 CNS = system: U251 CNS
HL-60(TB) leukemia = system: HL-60(TB) leukemia
MCF7 breast = system: MCF7 breast
PC-3 prostate = system: PC-3 prostate
OVCAR-8 ovarian = system: OVCAR-8 ovarian
NCI-H460 lung = system: NCI-H460 lung
SF-539 CNS = system: SF-539 CNS
A498 renal = system: A498 renal
HT29 colon = system: HT29 colon
HS 578T breast = system: HS 578T breast
IGROV1 ovarian = system: IGROV1 ovarian
MALME-3M melanoma = system: MALME-3M melanoma
ACHN renal = system: ACHN renal
CCRF-CEM leukemia = system: CCRF-CEM leukemia
DU-145 prostate = system: DU-145 prostate
MOLT-4 leukemia = system: MOLT-4 leukemia
T-47D breast = system: T-47D breast
NCI/ADR-RES ovarian = system: NCI/ADR-RES ovarian
K-562 leukemia = system: K-562 leukemia
HCC-2998 colon = system: HCC-2998 colon
SF-268 CNS = system: SF-268 CNS
MDA-MB-231 breast = system: MDA-MB-231 breast
786-0 renal = system: 786-0 renal
UO-31 renal = system: UO-31 renal
SF-295 CNS = system: SF-295 CNS
SNB-75 CNS = system: SNB-75 CNS
MDA-MB-435 = system: MDA-MB-435
OVCAR-4 ovarian = system: OVCAR-4 ovarian
BT-549 breast = system: BT-549 breast
SK-MEL-28 melanoma = system: SK-MEL-28 melanoma
SK-MEL-2 melanoma = system: SK-MEL-2 melanoma
COLO 205 colon = system: COLO 205 colon
HOP-62 NSCLC = system: HOP-62 NSCLC
SNB-19 CNS = system: SNB-19 CNS
NCI-H226 lung = system: NCI-H226 lung
RPMI-8226 leukemia = system: RPMI-8226 leukemia
OVCAR-3 ovarian = system: OVCAR-3 ovarian
SK-MEL-5 melanoma = system: SK-MEL-5 melanoma
UACC-62 melanoma = system: UACC-62 melanoma
SW-620 colon = system: SW-620 colon
UACC-257 melanoma = system: UACC-257 melanoma
KM12 colon = system: KM12 colon
A549 NSCLC = system: A549 NSCLC
RXF 393 renal = system: RXF 393 renal
CAKI-1 renal = system: CAKI-1 renal
NCI-H23 lung = system: NCI-H23 lung
SR leukemia = system: SR leukemia
HOP-92 NSCLC = system: HOP-92 NSCLC
LOX IMVI melanoma = system: LOX IMVI melanoma
TK-10 renal = system: TK-10 renal
SK-OV-3 ovarian = system: SK-OV-3 ovarian
NCI-H522 lung = system: NCI-H522 lung
HCT-15 colon = system: HCT-15 colon
EKVX NSCLC = system: EKVX NSCLC
SN12C renal = system: SN12C renal
OVCAR-5 ovarian = system: OVCAR-5 ovarian
M14 melanoma = system: M14 melanoma
HCT-116 colon = system: HCT-116 colon

## Cc1cc(Cl)ccc1Nc1nc(C(F)(F)F)ccc1C(=O)Nc1cccc(C(F)(F)F)c1
U251 CNS
  GI50: 3 µM
  TGI: 9.72 µM
HL-60(TB) leukemia
  GI50: 2.06 µM
  TGI: 4.67 µM
MCF7 breast
  GI50: 2.28 µM
  TGI: 7.71 µM
PC-3 prostate
  GI50: 3.63 µM
  TGI: 15.5 µM
OVCAR-8 ovarian
  GI50: 4.32 µM
  TGI: 22.7 µM
NCI-H460 lung
  GI50: 3.07 µM
  TGI: 10.6 µM
SF-539 CNS
  GI50: 3.27 µM
  TGI: 14.7 µM
A498 renal
  GI50: 2.79 µM
  TGI: 7.43 µM
HT29 colon
  GI50: 3.07 µM
  TGI: 10.8 µM
HS 578T breast
  GI50: 3.95 µM
  TGI: 20.2 µM
IGROV1 ovarian
  GI50: 3.88 µM
  TGI: 22.7 µM
MALME-3M melanoma
  GI50: 1.97 µM
  TGI: 9.17 µM
ACHN renal
  GI50: 2.75 µM
  TGI: 9.01 µM
CCRF-CEM leukemia
  GI50: 3.41 µM
  TGI: 14.7 µM
DU-145 prostate
  GI50: 3.17 µM
  TGI: 15.6 µM
MOLT-4 leukemia
  GI50: 3.04 µM
  TGI: 13.3 µM
T-47D breast
  GI50: 4.53 µM
  TGI: 23.8 µM
NCI/ADR-RES ovarian
  GI50: 3.38 µM
  TGI: 14.7 µM
K-562 leukemia
  GI50: 2.59 µM
  TGI: 11.2 µM
HCC-2998 colon
  GI50: 3.3 µM
  TGI: 15.7 µM
SF-268 CNS
  GI50: 4.22 µM
  TGI: 16.6 µM
MDA-MB-231 breast
  GI50: 2.03 µM
  TGI: 8.15 µM
786-0 renal
  GI50: 3.61 µM
  TGI: 12.9 µM
UO-31 renal
  GI50: 3.71 µM
  TGI: 16 µM
SF-295 CNS
  GI50: 3.24 µM
  TGI: 13.3 µM
SNB-75 CNS
  GI50: 3.41 µM
  TGI: 11.5 µM
MDA-MB-435
  GI50: 3.76 µM
  TGI: 16.1 µM
OVCAR-4 ovarian
  GI50: 3.07 µM
  TGI: 11.3 µM
BT-549 breast
  GI50: 3.76 µM
  TGI: 15.7 µM
SK-MEL-28 melanoma
  GI50: 4.79 µM
  TGI: 16.6 µM
SK-MEL-2 melanoma
  GI50: 3.23 µM
  TGI: 13.3 µM
COLO 205 colon
  GI50: 2.52 µM
  TGI: 6.13 µM
HOP-62 NSCLC
  GI50: 2.6 µM
  TGI: 11.9 µM
SNB-19 CNS
  GI50: 4.45 µM
  TGI: 15.8 µM
NCI-H226 lung
  GI50: 4.05 µM
  TGI: 17.6 µM
RPMI-8226 leukemia
  GI50: 2.73 µM
  TGI: 12 µM
OVCAR-3 ovarian
  GI50: 3.52 µM
  TGI: 19.1 µM
SK-MEL-5 melanoma
  GI50: 2.79 µM
  TGI: 9.34 µM
UACC-62 melanoma
  GI50: 4 µM
  TGI: 14.4 µM
SW-620 colon
  GI50: 4.23 µM
  TGI: 16.6 µM
UACC-257 melanoma
  GI50: 3.2 µM
  TGI: 11.6 µM
KM12 colon
  GI50: 2.1 µM
  TGI: 12.1 µM
A549 NSCLC
  GI50: 3.4 µM
  TGI: 18 µM
RXF 393 renal
  GI50: 3.58 µM
  TGI: 27.5 µM
CAKI-1 renal
  GI50: 3.61 µM
  TGI: 17.8 µM
NCI-H23 lung
  GI50: 2.85 µM
  TGI: 11.1 µM
SR leukemia
  GI50: 2.56 µM
  TGI: 8.28 µM
HOP-92 NSCLC
  GI50: 2.21 µM
  TGI: 8.16 µM
LOX IMVI melanoma
  GI50: 2.79 µM
  TGI: 8.55 µM
TK-10 renal
  GI50: 4.4 µM
  TGI: 21 µM
SK-OV-3 ovarian
  GI50: 2.44 µM
  TGI: 10.8 µM
NCI-H522 lung
  GI50: 3.47 µM
  TGI: 13.4 µM
HCT-15 colon
  GI50: 2.56 µM
  TGI: 7.35 µM
EKVX NSCLC
  GI50: 1.85 µM
  TGI: 11.1 µM
SN12C renal
  GI50: 3.23 µM
  TGI: 11.6 µM
OVCAR-5 ovarian
  GI50: 4.75 µM
  TGI: 19.3 µM

## Cc1ccc(-c2c3c(N)c4c(nc3nc3c2c(C)nn3-c2ccccc2)CCC4)cc1
U251 CNS
  GI50: 1.95 µM
  TGI: 4.01 µM
HL-60(TB) leukemia
  GI50: 2.07 µM
  TGI: 4.67 µM
MCF7 breast
  GI50: 1.75 µM
  TGI: 4.34 µM
PC-3 prostate
  GI50: 5.07 µM
  TGI: 20.9 µM
OVCAR-8 ovarian
  GI50: 2.32 µM
  TGI: 5.89 µM
NCI-H460 lung
  GI50: 2.02 µM
  TGI: 4.44 µM
SF-539 CNS
  GI50: 1.86 µM
  TGI: 3.46 µM
A498 renal
  GI50: 16.1 µM
  TGI: 32.6 µM
HT29 colon
  GI50: 5.07 µM
  TGI: 10.9 µM
HS 578T breast
  GI50: 5.03 µM
  TGI: 15.6 µM
M14 melanoma
  GI50: 6.25 µM
  TGI: 20.1 µM
IGROV1 ovarian
  GI50: 4.02 µM
  TGI: 16.2 µM
MALME-3M melanoma
  GI50: 18.4 µM
  TGI: 39.1 µM
ACHN renal
  GI50: 3.16 µM
  TGI: 8.38 µM
CCRF-CEM leukemia
  GI50: 2.54 µM
  TGI: 7.2 µM
DU-145 prostate
  GI50: 2.21 µM
  TGI: 4.68 µM
MOLT-4 leukemia
  GI50: 2.81 µM
  TGI: 7.94 µM
T-47D breast
  GI50: 2.18 µM
  TGI: 5.08 µM
NCI/ADR-RES ovarian
  GI50: 8.23 µM
  TGI: 32.3 µM
K-562 leukemia
  GI50: 2.42 µM
  TGI: 6.56 µM
HCC-2998 colon
  GI50: 3 µM
  TGI: 8.43 µM
SF-268 CNS
  GI50: 3.26 µM
  TGI: 11 µM
MDA-MB-231 breast
  GI50: 1.85 µM
  TGI: 3.98 µM
786-0 renal
  GI50: 1.87 µM
  TGI: 3.65 µM
UO-31 renal
  GI50: 1.87 µM
  TGI: 3.94 µM
SF-295 CNS
  GI50: 7.45 µM
  TGI: 21.9 µM
SNB-75 CNS
  GI50: 2.07 µM
  TGI: 6.66 µM
MDA-MB-435
  GI50: 17.1 µM
  TGI: 34.2 µM
OVCAR-4 ovarian
  GI50: 2.98 µM
  TGI: 11.9 µM
BT-549 breast
  GI50: 20.7 µM
  TGI: 45.5 µM
SK-MEL-28 melanoma
  GI50: 4.44 µM
  TGI: 9.69 µM
SK-MEL-2 melanoma
  GI50: 21.1 µM
  TGI: 42.6 µM
COLO 205 colon
  GI50: 1.69 µM
  TGI: 3.6 µM
HOP-62 NSCLC
  GI50: 2.7 µM
  TGI: 8.23 µM
SNB-19 CNS
  GI50: 3.85 µM
  TGI: 18 µM
NCI-H226 lung
  GI50: 22.1 µM
  TGI: 53.7 µM
HCT-116 colon
  GI50: 1.57 µM
  TGI: 3.41 µM
RPMI-8226 leukemia
  GI50: 2.23 µM
  TGI: 5.53 µM
OVCAR-3 ovarian
  GI50: 1.96 µM
  TGI: 3.86 µM
SK-MEL-5 melanoma
  GI50: 1.73 µM
  TGI: 3.31 µM
UACC-62 melanoma
  GI50: 18.6 µM
  TGI: 35.7 µM
SW-620 colon
  GI50: 2.6 µM
  TGI: 9.57 µM
UACC-257 melanoma
  GI50: 14.1 µM
  TGI: 28.8 µM
KM12 colon
  GI50: 4.4 µM
  TGI: 16 µM
A549 NSCLC
  GI50: 2.5 µM
  TGI: 7.49 µM
RXF 393 renal
  GI50: 1.58 µM
  TGI: 3.25 µM
CAKI-1 renal
  GI50: 6.89 µM
  TGI: 16.6 µM
NCI-H23 lung
  GI50: 17.5 µM
  TGI: 40 µM
SR leukemia
  GI50: 0.472 µM
  TGI: 9.61 µM
HOP-92 NSCLC
  GI50: 15.7 µM
  TGI: 36.3 µM
LOX IMVI melanoma
  GI50: 1.98 µM
  TGI: 3.99 µM
TK-10 renal
  GI50: 2.43 µM
  TGI: 5.42 µM
SK-OV-3 ovarian
  GI50: 7.01 µM
  TGI: 15 µM
NCI-H522 lung
  GI50: 18.2 µM
  TGI: 40.3 µM
HCT-15 colon
  GI50: 2.11 µM
  TGI: 5.15 µM
SN12C renal
  GI50: 1.83 µM
  TGI: 3.74 µM
OVCAR-5 ovarian
  GI50: 5.69 µM
  TGI: 13.1 µM
